Series [1] can be described thus: Cytotoxicity against human B cells assessed as cell viability after 24 hrs by annexin V/propidium iodide staining based flow cytometric analysis. Background: In flow cytometry, cells or beads pass a laser one at a time.
Series [2] can be described thus: Cytotoxicity against human A3 cells after 48 hrs by crystal violet staining based assay. To be noted: A3, 48 h. The series is classed as functional, cell-based.
The subject of a further series is HeLa. Nature of the series: Cytotoxicity against human HeLa cells after 24 hrs by [3H]-thymidine incorporation assay. The series is classed as functional, cell-based.
The nature of series [3]: Cytotoxicity against human CLL cells after 24 hrs by annexin-V/PI staining based flow cytometry in presence of fetal bovine serum. It counts as functional, cell-based.
Series [4] can be described thus: Cytotoxicity against human CLL cells after 24 hrs by annexin-V/PI staining based flow cytometry in presence of human plasma protein. It counts as functional, cell-based.
Series [5] in a line: Cytotoxicity against human SJSA1 cells after 48 hrs by crystal violet staining based assay. The series is classed as functional, cell-based. To be noted: SJSA-1, 48 h.
Series [6] can be described thus: Cytotoxicity against human IGROV cells after 48 hrs by crystal violet staining based assay. It counts as functional, cell-based.
Series [7] in a line: Cytotoxicity against human T cells assessed as cell viability after 24 hrs by annexin V/propidium iodide staining based flow cytometric analysis.
The test system of a further series is A-431. Nature of the series: Cytotoxicity against human A431 cells after 48 hrs by crystal violet staining based assay. It counts as functional, cell-based. To be noted: A-431, 48 h.
Series [8] can be described thus: Cytotoxicity against human CLL cells after 24 hrs by annexin-V/PI staining based flow cytometry. It counts as functional, cell-based.
Series [9] is described as follows: Cytotoxicity against human […] cells after 48 hrs by crystal violet staining based assay. The series is classed as functional, cell-based.
Series [10] can be described thus: Half life of compound in water at 25 deg C. It counts as physicochemical.
Series [11] can be described thus: Plasma protein binding in human by liquid chromatography-mass spectrometric analysis. The series is classed as ADME, cell-free.
The subject of another series is Plasma. The series is described as follows: Metabolic stability in human plasma assessed as drug recovery. It counts as ADME, cell-free.
Series [12] can be described thus: Half life of compound at pH 5. The series is classed as physicochemical.

This note sets out measurements from ChEMBL document CHEMBL3784975 (Bioorg Med Chem Lett, 2016).

In general, IC50 refers to the midpoint of a concentration-inhibition curve. What is called half-life is the time needed for the level to fall by half in the phase considered. High values mean slow loss, low ones fast loss.

`CN1C(=O)N[C@H]2[C@@H]3NC(=O)c4ccc(Br)n4[C@@H]3C[C@]21O` [AGELASTATIN A]: the Activity entry in series [1] and in series [7] was “Toxic” throughout. Also, the IC50 in [2] turned out to be 380 nM; in the series on HeLa, 84 nM; in series [3] it was 930 nM; in [4], 710 nM; in series [5], 440 nM; in series [6], 170 nM. The figures for the IC50 (in the series with A-431; in [8]; in series [9]) were 460 nM, 710 nM and 320 nM, respectively.

`CC(=O)CCO[C@@]12C[C@@H]3[C@@H](NC(=O)c4ccc(Br)n43)[C@@H]1NC(=O)N2C`: the IC50 in the series on HeLa was found to be 1720 nM; in series [8] it was 5740 nM. The half-life in series [10] is 16 h.

For `CN1C(=O)N[C@H]2[C@@H]3NC(=O)c4cc(-c5ccccc5)c(Br)n4[C@@H]3C[C@]21O`, the results for the IC50 (in the series with HeLa; in [8]) were above 20000 nM and above 10000 nM, respectively.

`CN1C(=O)N[C@H]2[C@@H]3NC(=O)c4cc(Cl)c(Br)n4[C@@H]3C[C@]21O`: the Activity result in series [1] and in series [7] was “Toxic” each time. The IC50 is 470 nM in series [2]; 2650 nM in series [3]; 2820 nM in [4]; 560 nM in series [5]; 260 nM in series [6]; 340 nM in the series on A-431. Also, the IC50 worked out at 2820 nM in [8] and 540 nM in series [9]. In series [11], this compound displayed a PPB of 46.5%. For the same compound, the Drug recovery in the series with Plasma was 102.1%.

As for `CN1C(=O)N[C@H]2[C@@H]3NC(=O)c4ccc(Br)n4[C@@H]3C[C@]21OCCCc1cn(CCCC(=O)NCc2ccccc2)nn1`, the values for the IC50 (in the series on HeLa; in series [8]) were above 20000 nM and above 10000 nM, respectively.

As for `CN1C(=O)c2ccc(Br)n2[C@@H]2C[C@]3(O)[C@@H](NC(=O)N3C)[C@@H]21` (racemic), the IC50 in the series with HeLa was above 20000 nM.

For `CN1C(=O)N[C@H]2[C@@H]3NC(=O)c4cc(C#Cc5ccccc5)c(Br)n4[C@@H]3C[C@]21O`, the concentration for half-maximal inhibition (IC50) in the series with HeLa was above 20000 nM; in [8] it was above 10000 nM.

As to `CN1C(=O)N[C@H]2[C@@H]3NC(=O)c4cc(Br)c(Br)n4[C@@H]3C[C@]21O`, the IC50 is above 1000 nM in [2]; 7850 nM in the series with HeLa; above 1000 nM in [5]; above 1000 nM in [6]; above 1000 nM with A-431; above 30000 nM in series [8]. The compound further registered a half-inhibitory concentration (IC50) in series [9] above 1000 nM.

In turn, `Cc1c(C)c2n(c1Br)[C@@H]1C[C@]3(O)[C@@H](NC(=O)N3C)[C@@H]1NC2=O` showed a concentration for half-maximal inhibition (IC50) with HeLa above 20000 nM.

On to `Cc1ccc2n1[C@@H]1C[C@]3(O)[C@@H](NC(=O)N3C)[C@@H]1NC2=O`, for which the half-maximal inhibitory concentration (IC50) in series [2] is above 1000 nM; with HeLa, above 20000 nM; in [5], above 1000 nM; in [6], 310 nM; in the series on A-431, above 1000 nM; in series [8], 9770 nM. The IC50 in series [9] is 280 nM.

As for `C#CCCCO[C@@]12C[C@@H]3[C@@H](NC(=O)c4ccc(Br)n43)[C@@H]1NC(=O)N2C`, the IC50 in the series on HeLa was above 20000 nM; in series [8] it was above 10000 nM.

Regarding `Cc1cc2n(c1Br)[C@@H]1C[C@]3(O)[C@@H](NC(=O)N3C)[C@@H]1NC2=O`, the IC50 was 4530 nM with HeLa and 7120 nM in series [8].

For `CN1C(=O)N[C@H]2[C@@H]3NC(=O)c4cc(-c5ccccc5)c(-c5ccccc5)n4[C@@H]3C[C@]21O`, the results for the IC50 (in the series on HeLa; in series [8]) were above 20000 nM and above 10000 nM, respectively.

Regarding `CN1C(=O)N[C@H]2[C@@H]3NC(=O)c4c(Br)c(Br)c(Br)n4[C@@H]3C[C@]21O`, the IC50 with HeLa was above 20000 nM; in series [8] it was above 10000 nM.

In the case of `CN1C(=O)N[C@H]2[C@@H]3NC(=O)c4ccc(Br)n4[C@@H]3C[C@]21N`, the IC50 with HeLa is 17000 nM; in series [8] it was above 30000 nM. The t1/2 in series [12] turned out to be 170 h.

Take `Cc1c(Br)c(Br)n2c1C(=O)N[C@@H]1[C@H]2C[C@]2(O)[C@H]1NC(=O)N2C`: the IC50 with HeLa is above 20000 nM.

On to `CN1C(=O)N[C@H]2[C@@H]3NC(=O)c4cc(I)c(Br)n4[C@@H]3C[C@]21O`, for which the IC50 in the series on HeLa is above 20000 nM.

In turn, `Cc1ccn2c1C(=O)N[C@@H]1[C@H]2C[C@]2(O)[C@H]1NC(=O)N2C` came in with a half-maximal inhibitory concentration (IC50) with HeLa above 20000 nM.

In the case of `CC(=O)c1cc2n(c1Br)[C@@H]1C[C@]3(O)[C@@H](NC(=O)N3C)[C@@H]1NC2=O`, the figures for the IC50 (in the series with HeLa; in [8]) were above 20000 nM and above 10000 nM, respectively.
